Experimental data taken from patent US4804668A, “Thiazole derivatives and medical compositions thereof” (Zenyaku Kogyo Kabushiki Kaisha, priority 1985, dated 1989).

Assays:
isolated left atrium = test: Effect on contractile force of isolated left atrium (electrically stimulated, Magnus's bath); parameters: species or system guinea pig (male Hartley, 7 weeks old); details: Corresponding Concentration 1 × 10^-4 (mol); isolated guinea pig left atrium, Krebs-Henseleit solution, stimulated at 0.5 cps, 5 msec, 20% above threshold
Experimental: (1) The contractile force of left atrium was tested according to the method described in Basic Lectures of Medicine Development, Volume V, Pharmacological Test Methods, Part 2, page 535 (1971). A 7-weeks-old male Hartley guinea pig (having a bodyweight of about 350 g) was killed by a blow on a head. The chest was opened and the heart was removed and placed in Krebs-Henseleit solution (prepared by adding distilled water to 6.92 g of sodium chloride, 0.35 g of calcium chloride, 0.29 g of magnesium sulfate, 0.16 g of mono-basic potassium phosphate, 2.1 g of sodium bicarbonate and 1.8 g of glucose so that the total amount was 1 l) which sufficiently bubbled with oxygen gas. Threads were tied to each tip of the left atrium. One thread was attached to a fixed pin in Magnus's bath and the other to a force-displacement transducer connected to an electric amplifier and recorder. The atrium was stimulated electrically at 0.5 cps, 5 msec and a voltage of 20% above threshold. The preparation is mounted in Krebs-Henseleit solution through which 95% oxygen gas and 5% carbon dioxide was blown. Then the samples were added.
Further, the above-mentioned tests were carried out by using following apparatuses.
Magnus's bath: supplied by Kabushiki Kaisha Natsume Seisakusho
Recorder: Model WI-680G supplied by Nippon Koden Kabushiki Kaisha
Force displacement transducer: supplied by Nippon Koden Kabushiki Kaisha
Electrical amplifier: Model AP-600G supplied by Nippon Koden Kabushiki Kaisha
Programmed electrosphygmonometer: supplied by Nippon Koden Kabushiki Kaisha

[1] = Acute toxicity (Litchfield-Wilcoxon method), intraperitoneal injection; parameters: species or system mouse (6-weeks-old male ddY); details: mouse, in vivo, ip, male ddY mice, 6 weeks old, 19-24 g
Experimental: (2) The acute toxicity of the compound of the formula I was determined according to the Litchfield-Wilcoxon method, J. Pharm. Exp. Ther., 96, 99 (1949) using 6-weeks-old male ddY mice (having a bodyweight of 19-24 g) while administrating the sample compound in intraperitonial injection.

| SMILES | Maximum Contractile Force (isolated left atrium) | LD50 [1] [mg/kg] |
| --- | --- | --- |
| COC(=O)c1nc(C)c(-c2ccncc2)s1 [Methyl 4-methyl-5-(4-pyridinyl)-thiazole-2-carboxylate] | 446 ± 91 mg | – |
| Cc1nc(C#N)sc1-c1ccncc1 [R1 = --CN, R2 = --CH3, R3 = 4-pyridinyl, 2-cyano-4-methyl-5-(4-pyridinyl)-thiazole] | 558 ± 123 mg | – |
| Cc1nc(C(N)=O)sc1-c1ccncc1 [4-Methyl-5-(4-pyridinyl)-thiazole-2-carboxamide] | 1,325 ± 132 mg | 230 |
| CNC(=O)c1nc(C)c(-c2ccncc2)s1 [R1 = --CONHCH3, R2 = --CH3, R3, N,4-Dimethyl-5-(4-pyridinyl)-thiazole-2-carboxamide] | 510 ± 45 mg | – |
